Legend:
[1] = system: Septoria apii; format: in vivo; details: celery (Utah) plants; % disease reduction relative to untreated check plants; concentration not given
[2] = system: Alternaria solani conidia; assay: Tomato Early Blight control (tomato seedlings, sprayed then inoculated); format: in vivo; details: 288 h, 250-ppm solution, tomato (Bonny Best), relative to untreated check plants, read-out: % Control TEB (Tomato Early Blight)
Method: Compounds of the invention were tested for the control of the Tomato Early Blight organism, Alternaria solani conidia. Tomato (variety Bonny Best) seedlings of 6 to 7 weeks old were used. The tomato plants were sprayed with a 250-ppm solution of the test compound in an acetone-and-water solution containing a small amount of a non-ionic emulsifier. The sprayed plants were inoculated one day later with the organism, placed in the environmental chamber and incubated at 66°-68° F. and 100% relative humidity for 24 hours. Following the incubation, the plants were maintained in the greenhouse for about 12 days. Percent disease control was based on the percent disease development on untreated check plants.

[3] = system: Phytophthora infestans conidia; assay: whole plant or invertebrate; format: in vivo; details: in Solanum lycopersicum, 168 h, read-out: % Control TLB (Tomato Late Blight)
[4] = system: Rhizoctonia solani; assay: Rhizoctonia mycelial inhibition test; format: cell-based; details: 500 ppm in acetone; 25° C., 24 hours; standard Difolatan; "0" assigned where greater than 1.6 micrograms/cm^2 required for 99% control
Method: Compounds of the present invention were evaluated for effectiveness against Rhizoctonia solani by means of a mycelial inhibition test. This test is designed to measure the fungitoxic activity of fungicidal chemicals in terms of their degree of inhibition of mycelial growth. Each compound to be tested was dissolved in acetone to 500 ppm concentration. Paper strips were infused with the particular mycelium growth (on this case Rhizoctonia solani) by covering the paper with a potato dextrose broth culture of mycelial suspension. The papers were then placed on potato dextrose agar plates and sprayed by means of a microsprayer with the fungicidal solution. The treated paper strips were incubated at 25° C. and data taken after 24 hours. Fungicidal activity is measured by the zone of inhibited mycelial growth from the center of the paper strip. The effectiveness of the compounds tested for fungicidal activity against Rhizoctonia solani is reported in Table III in terms of the [formula] In cases where greater than 1.6 micrograms/cm^2 were required for 99% control, a value of "0" was assigned to the test compound.

[5] = system: Plasmapora viticola; assay: Grape Downy Mildew control (detached grape leaves); format: in vivo; details: detached Vitis vinifera cultivar Emperor leaves; % disease reduction relative to untreated check plants; concentration not given
Method: Grape Downy Mildew Control
The compounds of the invention were tested for the control of the grape downy mildew organism Plasmapora viticola. Detached leaves, between 70 and 85 mm in diameter, of 7-week-old Vitis vinifera cultivar Emperor grape seedlings were used as hosts. The leaves were sprayed with a solution of the test compound in acetone. The sprayed leaves were dried, inoculated with a spore suspension of the organism, placed in a humid environmental chamber and incubated at 66°-68° F. and about 100% relative humidity. After incubation for 2 days, the plants were then held in a greenhouse for seven to nine days. Afterwards, the amount of disease control was determined. The percent disease control provided by a given test compound was based on the percent disease reduction relative to untreated check plants.

[6] = system: Botrytis cinerea; assay: Botrytis cinerea preventive control on harvested grape berries; format: in vivo; details: grape berries (Emperor)
Method: EXAMPLE 15-Botrytis Cinerea Control
Compound 1 of the invention was tested as a preventive fungicide against Botrytis cinerea on harvested mature grape berries (variety Emperor) by the following procedure: four grape bunches (trimmed to approximately 30 berries) were sprayed with a solution of the test compound in a solution of water, acetone and a small amount of a non-ionic emulsifier. The sprayed grapes were inoculated approximately one day later with 2- to 3-week-old culture of Botrytis cinerea grown on potato dextrose agar plates. The rate of disease incidence was determined 5-10 days after inoculation, when disease symptoms are fully evident on non-treated check grapes. Infection is determined by actual count of the number of infected berries. The percent disease control provided by a test compound was calculated from the percentage disease reduction based on the non-treated check grapes.

Structure (SMILES)	% Control CLB (Celery Late Blight) [1] [%]	pest or weed control at 250 µg/mL [2] [%]	pest or weed control at 250 µg/mL [3] [%]	% Control Rhizoc (Rhizoctonia) [4] [%]	% Control Grape DM (Grape Downy Mildew) [5] [%]	Botrytis Prevention (% Control) ([6]; 40 ppm) [%]	Botrytis Prevention (% Control) ([6]; 100 ppm) [%]	Botrytis Prevention (% Control) ([6]; 250 ppm) [%]
COC(=O)CSCC1CC(=O)N(c2cc(Cl)cc(Cl)c2)C1=O (centres unmarked) [Compound 6, N-3,5-dichlorophenyl-2-methoxycarbonylmethylthiomethylsuccinimide]	50	80	39	0	18	–	–	–
CC(C)(C)SC=C1CC(=O)N(c2cc(Cl)cc(Cl)c2)C1=O [Compound 14, N-3,5-dichlorophenyl-2-t-butylthiomethenylsuccinimide]	57	96	67	0	42	–	–	–
CC(C)(C)S(=O)(=O)C=C1CC(=O)N(c2cc(Cl)cc(Cl)c2)C1=O [Compound 11, N-3,5-dichlorophenyl-2-t-butylsulfonylmethenylsuccinimide]	0	0	6	0	8	–	–	–
COC(=O)CCS(=O)(=O)CC1CC(=O)N(c2cc(Cl)cc(Cl)c2)C1=O (centres unmarked) [Compound 2]	45	96	23	0	71	–	–	–
C=C(Cl)CS(=O)(=O)CC1CC(=O)N(c2cc(Cl)cc(Cl)c2)C1=O (centres unmarked) [Compound 10]	50	83	29	91	18	–	–	–
O=C1CC(=CSc2ccccc2)C(=O)N1c1cc(Cl)cc(Cl)c1 [Compound 12, N-3,5-dichlorophenyl-2-phenylthiomethenylsuccinimide]	0	0	21	0	0	–	–	–
COC(=O)CCSCC1CC(=O)N(c2cc(Cl)cc(Cl)c2)C1=O (centres unmarked) [Compound 7]	0	89	21	0	97	–	–	–
O=C1CC(C2SCCS2)C(=O)N1c1cc(Cl)cc(Cl)c1 (centres unmarked) [Compound 8, N-3,5-dichlorophenyl-2-formylsuccinimide-2-dithioketal]	29	98	89	30	18	–	–	–
CCSC=C1CC(=O)N(c2cc(Cl)cc(Cl)c2)C1=O [Compound 13, N-3,5-dichlorophenyl-2-ethylthiomethenylsuccinimide]	0	94	0	0	35	–	–	–
CC(=O)SCC1CC(=O)N(c2cc(Cl)cc(Cl)c2)C1=O (centres unmarked) [Compound 5, N-3,5-dichlorophenyl-2-thioacetylmethylsuccinimide]	0	57	0	0	23	–	–	–
CCOC(=O)CS(=O)(=O)CC1CC(=O)N(c2cc(Cl)cc(Cl)c2)C1=O (centres unmarked) [Compound 3, N-3,5-dichlorophenyl-2-ethoxycarbonylmethylsulfonylmethylsuccinimide]	–	85	93	78	23	–	–	–
CCOC(=O)CSCC1CC(=O)N(c2cc(Cl)cc(Cl)c2)C1=O (centres unmarked) [Compound 4, N-3,5-dichlorophenyl-2-ethoxycarbonylmethylthiomethylsuccinimide]	–	0	84	0	0	–	–	–
COC(=O)CS(=O)(=O)CC1CC(=O)N(c2cc(Cl)cc(Cl)c2)C1=O (centres unmarked) [Compound 1, N-3,5-dichlorophenyl-2-methoxycarbonylmethylsulfonylmethylsuccinimide]	57	89	11	0	81	58	52	58
C=CCS(=O)(=O)CC1CC(=O)N(c2cc(Cl)cc(Cl)c2)C1=O (centres unmarked) [Compound 9, N-3,5-dichlorophenyl-2-allylsulfonylmethylsuccinimide]	50	63	25	80	57	–	–	–
